# In PMC4634863, “A Putative Non-Canonical Ras-Like GTPase from P. falciparum: Chemical Properties and Characterization of the Protein” (PLoS ONE, 2015):
# Target: T1, PfG (Plasmodium falciparum, UniProt O77338)
# T1 construct: gene PF3D7_0313500
# T1 sequence (O77338 1-911): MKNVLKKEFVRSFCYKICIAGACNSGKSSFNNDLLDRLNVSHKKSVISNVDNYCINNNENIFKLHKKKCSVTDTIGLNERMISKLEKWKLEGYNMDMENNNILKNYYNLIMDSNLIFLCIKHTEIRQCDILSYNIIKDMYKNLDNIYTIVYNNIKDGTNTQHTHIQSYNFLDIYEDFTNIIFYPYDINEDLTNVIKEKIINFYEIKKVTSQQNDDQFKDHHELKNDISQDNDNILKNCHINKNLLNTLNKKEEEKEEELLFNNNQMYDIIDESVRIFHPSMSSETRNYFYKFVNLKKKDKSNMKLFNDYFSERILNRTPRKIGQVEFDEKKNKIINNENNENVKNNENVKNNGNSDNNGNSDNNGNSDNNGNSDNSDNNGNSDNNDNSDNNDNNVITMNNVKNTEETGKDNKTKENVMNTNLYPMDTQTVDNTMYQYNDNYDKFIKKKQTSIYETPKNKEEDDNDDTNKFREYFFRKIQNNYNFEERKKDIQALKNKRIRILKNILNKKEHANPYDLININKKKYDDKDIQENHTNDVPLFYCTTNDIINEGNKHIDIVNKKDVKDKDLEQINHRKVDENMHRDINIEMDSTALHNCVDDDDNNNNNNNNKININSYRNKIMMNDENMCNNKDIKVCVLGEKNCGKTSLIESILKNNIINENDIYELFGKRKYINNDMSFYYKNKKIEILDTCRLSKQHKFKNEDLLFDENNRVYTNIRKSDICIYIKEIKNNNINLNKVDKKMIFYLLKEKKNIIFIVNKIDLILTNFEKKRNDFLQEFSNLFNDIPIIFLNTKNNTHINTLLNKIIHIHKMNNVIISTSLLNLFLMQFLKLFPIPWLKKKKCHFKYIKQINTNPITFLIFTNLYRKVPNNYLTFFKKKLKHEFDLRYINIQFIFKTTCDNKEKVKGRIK
# Test: fluorescence emission on binding, […] s time courses
# Settings: labelled compound; reversible nucleotide binding, unit printed as nmol (nM probably meant)
substance,measurement,value
BODIPY® FL GTPγS,dissociation constant (Kd),1.77 ± 0.36 nmol
